Experiments:
[1] = test system: RBCs from a patient with PNH; test: modified Ham's test with flow cytometry for CD59 and C3d (Example 18); assay type: cell-based, human; conditions: for % C′3 (Type I) / % C′3 (Type II) / % C′3 (Type III): cells positive for C3 loading
Method: A modified Ham's test was performed to assess the ability of compstatin analogs to protect PNH RBCs from complement-mediated lysis. […] Exposure to heat inactivated human serum was used as a control representing no significant complement-mediated lysis as complement is inactivated by heat. Exposure to acidified human serum and magnesium (Mg^2+) in the absence of complement inhibitors (pane labeled Mg^2+) was used as a control representing maximum lysis.
Following incubation, cells were stained with antibodies to CD59 and C3d. Cd59 level permitted the classification of the PNH RBCs as Type I, Type II, or Type III. Staining for C3d, a product of C3 activation and cleavage was used as a marker of C3 and C3 activation product deposition (loading). Flow cytometric analysis was performed to assess CD59 and C3d on RBC surfaces and to quantify the percentages of Type I, Type II, and Type III cells present in various samples.
Type I cells (shown in orange in FIG. 12) have normal levels of CD59. Type III cells (shown in blue in FIG. 12) have essentially no detectable CD59. […] Type II cells (shown in purple in FIG. 12) have reduced levels of CD59 as compared with normal or Type I cells and have an intermediate sensitivity to complement-mediated lysis. […] Reduction in or absence of lysis may be evidenced by increased levels of C3 or C3 activation products on Type II cells, as is evident by comparing the level of C3d on Type II cells in the no lysis panel with the level of C3d on Type II cells in the max. lysis panel in both FIGS. 12(A) and 12(B). […] A shift in the relative percentages of Type I, II, and III cells from the percentages present in the max. lysis control panels (Mg^2+) towards the percentages present in the no lysis control panels (heat inactivated serum) is indicative of protection against complement-mediated lysis. The column labeled % C′3 in Table 11 refers to the percentage of cells deemed “positive” for presence of C3 and C3 activation products (“C3 loading”).

[2] = test system: complement activation via the classical pathway; test: classical complement inhibition assay (C3b deposition ELISA); assay type: biochemical, Human
Method: Inhibitory activity of the synthesized compounds was assessed by measuring the effect of the compounds on complement activation via the classical pathway using a standard complement inhibition assay. The protocol measures C3b deposition in an ELISA format. C3b deposition monitored using this method is generated through complement activated by the classical pathway. Briefly, 96-well plates are coated with BSA. Human plasma, chicken ovalbumin (OVA), polyclonal anti-OVA antibodies and compound being tested (referred to as “drug”) are added and incubated, followed by addition of Anti-human C3 HRP-conjugated antibody. After an additional incubation, substrate is added and signal detected. Details of the protocol are as follows:
Protocol for Classical Complement Inhibition Assay
• Ninety-six well plate (polystyrene plate, Thermo Scientific, 9205) • Chicken OVA (Sigma A5503-5G) • Rabbit anti-chicken OVA (Abcam ab1221) • Blocking buffer (Startingblock buffer, Thermo Scientific 37538) • Veronal Buffer (5× concentration, Lonza 12-624E) • Human plasma (collected with Lepirudin at 50 ug/ml final concentration) • Goat anti-human C3 HRP-conjugated Ab (MP Biomedicals, 55237) • Tween-20 Wash Buffer (0.05% Tween 20-PBS buffer) • TMB (Peroxidase substrate, BD 555214)—1:1 mixture of BD 51-2607KC and 51-2606KC. • 1M H2SO4
• 1. […] Read the plate at 450 nm
Data was analyzed using GraphPad Prism5 software. […]

[3] = test system: PNH RBCs; test: modified Ham's assay, comparison with Soliris (Example 19); assay type: cell-based, human; conditions: CA28-2GS-BF at 50 ug/ml
Method: Flow cytometry was performed after antibody staining using antibodies against CD59 and C3d. In this figure, quadrant 1 (Q1) and quadrant 3 (Q3) represent Type III cells. Quadrant 2 (Q2) and quadrant 4 (Q4) represent Types I and II cells. Q1 and Q2 represent cells with a significant and abnormally high amount of C3 activation product (e.g., C3d) deposition.

[4] = test system: complement activation (alternative pathway); conditions: WO2004/026328; cited from earlier work
[5] = biological target: T1, complement component C3 (human) (human, UniProt P01024 23-1663); test: cell-based or functional assay
[6] = biological target: T1, complement component C3 (human); test: cell-based or functional assay; remark: listed apart in the source
[7] = biological target: T1, complement component C3 (human); test: cell-based or functional assay; remark: listed apart in the source

CA28-2GS-BF: two CA28-AEEAc-Lys moieties coupled to bifunctional linear 40 kD PEG, NHS-OCO(CH2)3COO-PEG-CO(CH2)3COO-NHS
C3 loading on PNH red cells ([1]; at 100 micrograms/ml compound or higher concentrations): virtually no C3 loading
Type III % ([1]; compound at 20 micrograms/ml): 19.19%
% C′3 (Type I) ([1]; compound at 20 micrograms/ml): 2.18%
% C′3 (Type II) ([1]; compound at 20 micrograms/ml): 12.28%
% C′3 (Type III) ([1]; compound at 20 micrograms/ml): 0.99%
% C′3 (Type I) ([1]; compound at 40 micrograms/ml): 2.84%
% C′3 (Type III) ([1]; compound at 40 micrograms/ml): 1.21%
Type III % ([1]; compound at 50 micrograms/ml): 13.87%
% C′3 (Type I) ([1]; compound at 50 micrograms/ml): 2.28%
% C′3 (Type III) ([1]; compound at 50 micrograms/ml): 1.29%
% C′3 (Type I) ([1]; compound at 60 micrograms/ml): 2.05%
% C′3 (Type II) ([1]; compound at 60 micrograms/ml): 13.04%
% C′3 (Type III) ([1]; compound at 60 micrograms/ml): 1.44%
Type II % ([1]; compound at 100 micrograms/ml): 53.93%
% C′3 (Type I) ([1]; compound at 100 micrograms/ml): 0.07%
% C′3 (Type II) ([1]; compound at 100 micrograms/ml): 0.88%
% C′3 (Type III) ([1]; compound at 100 micrograms/ml): 0.11%
Type II % ([1]; compound at 200 micrograms/ml): 51.99%
% C′3 (Type I) ([1]; compound at 200 micrograms/ml): 0.02%
% C′3 (Type II) ([1]; compound at 200 micrograms/ml): 0.26%
% C′3 (Type III) ([1]; compound at 200 micrograms/ml): 0.02%
Type II % ([1]; compound at 500 micrograms/ml): 51.87%
Type III % ([1]; compound at 500 micrograms/ml): 37.87%
% C′3 (Type I) ([1]; compound at 500 micrograms/ml): 0.04%
% C′3 (Type II) ([1]; compound at 500 micrograms/ml): 0.3%
% C′3 (Type III) ([1]; compound at 500 micrograms/ml): 0.05%
activity per compstatin analog (peptide) moiety compared with CA28 [2]: less than the activity of an individual CA28 molecule
complement inhibiting activity compared with CA28 on a molar basis [2]: virtually identical
Q1 # Events ([3]; Q1 = Type III cells with abnormally high C3d deposition): 23
Q3 # Events ([3]; Q3 = Type III cells without significant C3d deposition): 153,187
Q4 # Events ([3]; Q4 = Types I and II cells without significant C3d deposition): 95,713
deposition of C3d / C3 activation products on PNH RBCs ([3]; activated complement): essentially no deposition of C3d

CC[C@H](C)[C@H](N)C(=O)N[C@H]1CSSC[C@@H](C(=O)N[C@H](C(N)=O)[C@@H](C)O)NC(=O)[C@H](CCCN=C(N)N)NC(=O)[C@H](Cc2cnc[nH]2)NC(=O)[C@H](Cc2cnc[nH]2)NC(=O)CNC(=O)[C@H](Cc2c[nH]c3ccccc23)NC(=O)[C@H](CC(=O)O)NC(=O)[C@H](CCC(N)=O)NC(=O)[C@H](C(C)C)NC(=O)[C@H](C(C)C)NC1=O [Compstatin]
IC50 [4]: 12 µM

B1: CA28-2TS-BF (bifunctionalized PEG-based compstatin analog, TS type) (peptide)
peptide: ICVWQDWGAHRCTK
modifications: N-terminal acetyl; 1-methyl-tryptophan at position 4; disulfide Cys2-Cys12; AEEAc linker after Thr13; Lys side chain coupled through a carbamate to one end of a bifunctional linear 40 kD PEG (TS type); C-terminal amide
IC50 (read off the curve); alternative pathway complement activation (LPS-coated plate, C3b deposition ELISA, human plasma) [B] [5]: ~0.4 µM

B2: (CA28-AEEAc)8-PEG40k (peptide)
peptide: ICVWQDWGAHRCTK
modifications: N-terminal acetyl; 1-methyl-tryptophan at position 4; disulfide Cys2-Cys12; AEEAc linker after Thr13; Lys side chain coupled to one arm of an eight-arm 40 kD PEG (NOF HGEO-400GS); C-terminal amide
IC50, classical complement inhibition assay (C3b deposition ELISA), as a function of CA28 concentration [6]: 1.93 µM
IC50 on a molar basis, classical complement inhibition assay [7]: ~0.26 µM

Reference: US20160194359A1, “CELL-REACTIVE, LONG-ACTING, OR TARGETED COMPSTATIN ANALOGS AND RELATED COMPOSITIONS AND METHODS” (APELLIS PHARMACEUTICALS, INC., priority 2012, published 2016)
